How the values were obtained:
[1] = Overall anti-hepatitis, liver-function improving and anti-ulcer activities (summary of tests)
[2] = test system: Stomach injury through water-immersion constraint stress; experiment: Anti-ulcer test: stomach injury through water-immersion constraint stress; format: in vivo, male rats of KBL Wistar strain; settings: rats; for Suppression rate: 30 min before water-soaking constraint, 7 h, ulcer length, * p < 0.05
Experimental: (2) Stomach injury through water-immersion constraint stress
Rats weighing 183 to 235 g were fasted with free access to water for 24 hours before being used in the experiment. The rats were divided into groups each consisting of 10 heads in such a way as their mean body weights were nearly uniform, stress-loaded by soaking the animals as placed in a stress cage of Univ. of Tokyo type in a water tank at 23° C. up to the xiphoid and sacrificed through cervical vertebrae dislocation 7 hours later. The stomachs were removed and treated with formalin, and individual ulcers formed in the glandula portion of the stomach were measured in length (mm), with the measured ulcer lengths being summed for each rat. The test substance was suspended in a 0.5% aqueous solution of sodium carboxymethylcellulose, and the suspension was given to the test group orally at a dose of 10 ml/kg body weight 30 min before the water-soaking constraint, whereas the vehicle alone was applied to the control group.

[3] = test system: Isolated liver cells of rats; experiment: Anti-hepatitis test: disorder of the isolated liver cells, antibody against rat liver cell membranes; format: cell-based; settings: antiserum against rat liver cell membranes, test substance 0.1 mg/ml solution, 1 ml added to 2 ml, supernatant, Table 3, n = 8, * p < 0.05
Experimental: (2) Disorder of the isolated liver cells
b. Antibody against rat liver cell membranes
Isolated liver cells of rats were prepared by means of Segren's collagenase irrigation method, whereby a liver cell suspension was prepared at a concentration of 6×10^8 liver cells/mi. An Erlenmeyer flask of a 10 ml capacity in which 2 ml of the suspension had been placed was saturated with 95% oxygen, and after the flask was tightly stoppered, preincubation was carried out at 37° C. for 5 min. One ml of a test substance solution prepared at a concentration of 0.1 mg/ml Hunk's solution was added to the liver cell suspension, while 1 ml of the Hunk's solution was added to the control, followed by incubation for another 5 min, and antiserum against rat liver cell membranes (a 50-fold diluted serum) was added. A specifically determined volume of the reaction solution was pipetted out 0 and 30 min after the initiation of reaction, respectively, and immediately centrifuged under 500 g for 30 seconds, and the ALT, AST and LDH as leached out into the supernatant liquid were determined for activity by the Lippie method.

[4] = test system: Stomach injury with hydrochloric acid/ethanol; experiment: Anti-ulcer test: stomach injury with hydrochloric acid/ethanol; format: in vivo, male rats of KBL Wistar strain; settings: rats; for Suppression rate: 30 min before hydrochloric acid/ethanol, ulcer length
Experimental: (1) Stomach injury with hydrochloric acid/ethanol:
Rats weighing 193 to 228 g were fasted with free access to water for 24 hours before being used in the experiment. The rats were divided into groups each consisting of 10 heads in such a way as their mean body weights were nearly uniform, treated through oral administration of hydrochloric acid/ethanol (0.15 mole hydrochloric acid solution in 80% ethanol) at a dose of 5 ml/kg body weight and sacrificed through cervical vertebrae dislocation 1 hour after administration. The stomachs were removed and treated with formalin, and individual ulcers formed in the glandula portion of the stomach were measured in length (mm), with the measured ulcer lengths being summed for each rat. The test substance was suspended in a 0.5% aqueous solution of sodium carboxymethylcellulose, and the suspension was given to the test group orally at a dose of 10 ml/kg body weight 30 min before administration of hydrochloric acid/ethanol, whereas the vehicle alone was applied to the control group.

[5] = test system: Isolated liver cells of rats; experiment: Anti-hepatitis test: disorder of the isolated liver cells, carbon tetrachloride; format: cell-based; settings: isolated rat liver cells, carbon tetrachloride vapor; test substance 0.1 mg/ml solution, 1 ml added to 2 ml; supernatant; Table 2; n = 8; * p < 0.05
Experimental: (2) Disorder of the isolated liver cells a. Carbon tetrachloride Isolated liver cells of rats were prepared by means of […] collagenase irrigation method, whereby a liver cell suspension was prepared to a concentration of 6×10^8 liver cells/mi. Into 2 ml of the suspension in an Erlenmeyer flask of a 10 ml capacity was put a test tube of about 0.5 capacity containing carbon tetrachloride to saturate the reaction system with carbon tetrachloride vapor, and after the flask was tightly stoppered, preincubation was carried out at 37° C. for 5 min. One ml of a test substance solution prepared at a concentration of 0.1 mg/ml Hunk's solution was added to the suspension of liver cells, while 1 ml of Hunk's solution was added to the control.

[6] = test system: Liver disorder (hepatopathy) in mice; experiment: Anti-hepatitis test: liver disorder (hepatopathy) in mice, carbon tetrachloride; format: in vivo, dyy-strain male mice; settings: carbon tetrachloride i.p., test substance 1.0 mg/ml i.p. 3 h later, blood at 24 h, Table 1, * p < 0.05
Experimental: (1) Liver disorder (hepatopathy) in mice A group of 8 dyy-strain male mice (weighing 23 to 25 g), kept fasting from the previous day was treated by intraperitoneal injection of a 25% solution of carbon tetrachloride in olive oil at a dose of […] and thereafter allowed free access to food. Three hours after the administration of carbon tetrachloride, the mice were given a 1.0 mg/ml concentrated suspension of the test substance, as prepared in conjunction with powdered gum arabic, by intra-peritoneal injection at a dose of 0.1 ml/body weight. Twenty four hours after the administration of carbon tetrachloride, blood samples were drawn from the mice under anesthesia with ether through the abdominal descending aorta.

mice = experiment: Acute toxicity test; format: in vivo, Male, SLC:ICR (SPE) mice; settings: oral
Experimental: Male, SLC:ICR (SPE) mice weighing 20 g, divided into groups each consisting of 5 heads, were treated by oral administration of the test compound suspended in gum arabic at doses of 1,000 mg/kg, 1,500 mg/kg and 2,500 mg/kg test compound, followed by observation for any abnormalities.

Compound | anti-hepatitis, liver-function improving and anti-ulcer activities [1] | suppression against increases in activities of ALT, AST and LDH ([1]; Tables 1 to 3, as compared with the control compounds currently in use) | Suppression rate ([2]; 50 mg/kg oral) | Suppression rate ([2]; 100 mg/kg oral) | Suppression rate ([2]; 200 mg/kg oral) | UD50 ([2]; oral, water-immersion constraint stress, 95% C.L. 97.9~113, 420 min) | ALT, mean ± S.D. [3] | AST, mean ± S.D. [3] | LDH, mean ± S.D. [3] | Suppression rate ([4]; 50 mg/kg oral) | Suppression rate ([4]; 100 mg/kg oral, * p < 0.01) | Suppression rate ([4]; 200 mg/kg oral, * p < 0.01) | UD50 ([4]; oral, hydrochloric acid/ethanol, 95% C.L. 83.4~94.3, 60 min) | ALT, mean ± S.D. [5] | AST, mean ± S.D. [5] | ALT, mean ± S.D. [6] | AST, mean ± S.D. [6] | LDH, mean ± S.D. [6] | LD50 (mice) | deaths (mice; doses up to 2,500 mg/kg)
Zinc-[bis(2-aminoethanesulfonic acid).bis(sodium 2-aminoethanesulfonate)] [FTZ] | exhibits anti-hepatitis, liver-function improving and anti-ulcer activities | significantly enhanced suppression | 26.4% | 56.1% | 64.5% | 105 mg/kg | 1429.5 ± 327.8 IU | 1025.8 ± 268.4 IU | 1875.3 ± 437.1 IU | 32.1% | 53.5% | 74.9% | 88.7 mg/kg | 1107.1 ± 168.8 IU | 345.7 ± 72.8 IU | 4265.7 ± 1347.6 IU | 3215.8 ± 967.7 IU | 15865 ± 5300.8 IU | > 2,500 mg/kg | did not cause any animal to die
CC(S)C(=O)NCC(=O)O (centres unmarked) [Thiopronine] |  |  |  |  |  |  | 1826.5 ± 479.5 IU | 1623.7 ± 432.8 IU | 2583.7 ± 634.1 IU |  |  |  |  | 1426.9 ± 199.5 IU | 956.8 ± 219.5 IU | 4941.2 ± 1537.7 IU | 4884.5 ± 1097.5 IU | 26789 ± 9753 IU |  | 
CC1(C)[C@@H](O[C@H]2O[C@H](C(=O)O)[C@@H](O)[C@H](O)[C@H]2O[C@@H]2O[C@H](C(=O)O)[C@@H](O)[C@H](O)[C@H]2O)CC[C@]2(C)[C@H]3C(=O)C=C4[C@@H]5C[C@@](C)(C(=O)O)CC[C@]5(C)CC[C@@]4(C)[C@]3(C)CC[C@@H]12 [Glycyrrhizin] |  |  |  |  |  |  | 1764.8 ± 437.1 IU | 1358.4 ± 324.1 IU | 2163.1 ± 562.7 IU |  |  |  |  | 1089.7 ± 210.2 IU | 267.8 ± 78.1 IU | 8339.3 ± 2420.1 IU | 8949.6 ± 4530.0 IU | 26457 ± 11086 IU |  | 
N[C@@H](CCC(=O)N[C@@H](CS)C(=O)NCC(=O)O)C(=O)O [Glutathione] |  |  |  |  |  |  | 2257.8 ± 581.6 IU | 1759.4 ± 394.3 IU | 2541.1 ± 563.4 IU |  |  |  |  | 1176.1 ± 123.7 IU | 321.7 ± 94.4 IU | 19423.1 ± 1042.3 IU | 9643.6 ± 3874.3 IU | 32392 ± 7906 IU |  | 
